Data reported in the supplement of paper PMC6045584.
± gives the standard deviation of the averaged measurements.

Experiments:
[1] = compound: Cc1nc(Nc2n[nH]c3c2CN(C(=O)N[C@H](CN(C)C)c2ccccc2)C3(C)C)c2sccc2n1; assay: surviving fraction relative to DMSO-only wells; higher = less growth inhibition; conditions: exposure time: 5 days
Summary of the method: (§1)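 Tumour cell lines were seeded in log phase at 250–500 cells per well into 384-well plates. Starting 24 hours later, inhibitors were present continuously for five days at 0.5, 1, 5, 10, 50, 100, 500 and 1000 nM. Surviving fraction, from CellTiter-Glo luminescence, is normalised to the median of DMSO-only wells. Three screens per line were required, with replicate Pearson r >0.7 and median Z' >0.3 for a line to be kept.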

EVEROLIMUS = compound: CO[C@H]1C[C@@H]2CC[C@@H](C)[C@@](O)(O2)C(=O)C(=O)N2CCCC[C@H]2C(=O)O[C@H]([C@H](C)C[C@@H]2CC[C@@H](OCCO)[C@H](OC)C2)CC(=O)[C@H](C)/C=C(\C)[C@@H](O)[C@@H](OC)C(=O)[C@H](C)C[C@H](C)/C=C/C=C/C=C/1C [EVEROLIMUS]; assay: as above; conditions: exposure time: 5 days
Summary of the method: as §1

Test System | surviving fraction ([1]; 0.5 nM) | surviving fraction ([1]; 1 nM) | surviving fraction ([1]; 5 nM) | surviving fraction ([1]; 10 nM) | surviving fraction ([1]; 50 nM) | surviving fraction ([1]; 100 nM) | surviving fraction ([1]; 500 nM) | surviving fraction ([1]; 1000 nM) | surviving fraction (EVEROLIMUS; 0.5 nM) | surviving fraction (EVEROLIMUS; 1 nM) | surviving fraction (EVEROLIMUS; 5 nM) | surviving fraction (EVEROLIMUS; 10 nM) | surviving fraction (EVEROLIMUS; 50 nM) | surviving fraction (EVEROLIMUS; 100 nM) | surviving fraction (EVEROLIMUS; 500 nM) | surviving fraction (EVEROLIMUS; 1000 nM)
H23 LUNG | 0.989 ± 0.029 | 0.929 ± 0.051 | 0.578 ± 0.032 | 0.35 ± 0.025 | 0.26 ± 0.0067 | 0.23 ± 0.013 | 0.216 ± 0.0089 | 0.206 ± 0.023 | 0.811 ± 0.023 | 0.724 ± 0.011 | 0.567 ± 0.049 | 0.501 ± 0.039 | 0.488 ± 0.022 | 0.482 ± 0.034 | 0.405 ± 0.048 | 0.433 ± 0.03
MDAMB231 BREAST | 0.964 ± 0.023 | 0.923 ± 0.029 | 0.667 ± 0.012 | 0.591 ± 0.019 | 0.474 ± 0.0092 | 0.433 ± 0.022 | 0.205 ± 0.0056 | 0.0829 ± 0.0099 | 0.779 ± 0.021 | 0.73 ± 0.028 | 0.621 ± 0.029 | 0.5901 ± 0.005 | 0.591 ± 0.022 | 0.575 ± 0.019 | 0.541 ± 0.038 | 0.521 ± 0.038
HU09 BONE | 0.811 ± 0.053 | 0.67 ± 0.084 | 0.473 ± 0.049 | 0.425 ± 0.081 | 0.381 ± 0.046 | 0.339 ± 0.028 | 0.174 ± 0.023 | 0.111 ± 0.007 | 0.669 ± 0.016 | 0.602 ± 0.037 | 0.513 ± 0.0057 | 0.512 ± 0.048 | 0.49 ± 0.011 | 0.42 ± 0.011 | 0.382 ± 0.016 | 0.39 ± 0.023
MCF7 BREAST | 0.89 ± 0.077 | 0.857 ± 0.024 | 0.621 ± 0.036 | 0.746 ± 0.035 | 0.547 ± 0.01 | 0.546 ± 0.022 | 0.395 ± 0.019 | 0.486 ± 0.0057 | 0.673 ± 0.049 | 0.597 ± 0.058 | 0.502 ± 0.046 | 0.495 ± 0.024 | 0.527 ± 0.011 | 0.505 ± 0.012 | 0.504 ± 0.021 | 0.514 ± 0.024
SAOS2 BONE | 0.797 ± 0.0017 | 0.645 ± 0.062 | 0.509 ± 0.016 | 0.4777 ± 0.004 | 0.42 ± 0.019 | 0.376 ± 0.025 | 0.12 ± 0.018 | 0.034 ± 0.0017 | 1.13 ± 0.094 | 1.12 ± 0.054 | 1.0323 ± 0.00058 | 0.943 ± 0.044 | 0.909 ± 0.048 | 0.936 ± 0.025 | 0.826 ± 0.064 | 0.71 ± 0.049
COLO320DM LARGE INTESTINE | 1.1 ± 0.089 | 1.04 ± 0.041 | 1.11 ± 0.035 | 1.1 ± 0.072 | 0.793 ± 0.055 | 0.745 ± 0.019 | 0.333 ± 0.011 | 0.388 ± 0.015 | 0.945 ± 0.056 | 0.983 ± 0.072 | 0.835 ± 0.081 | 0.843 ± 0.074 | 0.742 ± 0.017 | 0.779 ± 0.037 | 0.695 ± 0.047 | 0.652 ± 0.025
HOSMNG BONE | 0.981 ± 0.063 | 0.995 ± 0.065 | 1.02 ± 0.11 | 0.944 ± 0.025 | 0.821 ± 0.042 | 0.622 ± 0.029 | 0.399 ± 0.024 | 0.253 ± 0.018 | 1.03 ± 0.013 | 0.95 ± 0.051 | 0.951 ± 0.11 | 0.979 ± 0.07 | 1 ± 0.07 | 1.05 ± 0.1 | 0.999 ± 0.085 | 1.03 ± 0.027
CASKI CERVIX | 0.713 ± 0.037 | 0.472 ± 0.0095 | 0.237 ± 0.0071 | 0.193 ± 0.0081 | 0.13 ± 0.013 | 0.0993 ± 0.012 | 0.0227 ± 0.0031 | 0.0183 ± 0.00058 | 0.57 ± 0.035 | 0.506 ± 0.025 | 0.473 ± 0.018 | 0.402 ± 0.029 | 0.446 ± 0.021 | 0.389 ± 0.043 | 0.376 ± 0.0098 | 0.379 ± 0.014
HOS BONE | 1.02 ± 0.018 | 0.957 ± 0.014 | 0.583 ± 0.02 | 0.409 ± 0.03 | 0.234 ± 0.015 | 0.233 ± 0.0055 | 0.194 ± 0.0038 | 0.112 ± 0.0079 | 0.885 ± 0.015 | 0.861 ± 0.0096 | 0.804 ± 0.018 | 0.742 ± 0.021 | 0.763 ± 0.011 | 0.766 ± 0.012 | 0.711 ± 0.033 | 0.721 ± 0.0092
HS578T BREAST | 0.767 ± 0.024 | 0.713 ± 0.019 | 0.506 ± 0.064 | 0.504 ± 0.05 | 0.374 ± 0.056 | 0.37 ± 0.049 | 0.186 ± 0.029 | 0.095 ± 0.013 | 0.6 ± 0.095 | 0.598 ± 0.019 | 0.527 ± 0.047 | 0.524 ± 0.042 | 0.563 ± 0.08 | 0.545 ± 0.048 | 0.471 ± 0.044 | 0.468 ± 0.017
